Measurements published in the NIST ThermoML archive (doi:10.1016/j.jct.2016.10.031).

Assay: molar heat capacity at constant pressure
Settings: 101.33 kPa, Small (less than 1 g) adiabatic calorimetry

CC(C)(C)c1ccc(Oc2ccc([N+](=O)[O-])cc2)cc1 [1-(tert-butyl)-4-(4-nitrophenoxy)benzene]
molar heat capacity at constant pressure [J/K/mol]
Settings | Crystal | Glass
117.84 K | 155.15 | –
118.4 K | – | 158.72
118.64 K | 155.98 | –
119.2 K | – | 159.8
119.45 K | 156.81 | –
120 K | 157.31 | 160.64
120.25 K | 157.89 | –
120.81 K | – | 161.47
121.06 K | 158.56 | –
121.61 K | – | 162.22
121.86 K | 159.64 | –
122.41 K | – | 163.13
122.66 K | 160.3 | –
123.21 K | – | 164.21
123.47 K | 161.22 | –
124.02 K | – | 164.88
124.27 K | 162.13 | –
124.82 K | – | 165.96
125.07 K | 162.96 | –
125.62 K | – | 166.54
125.87 K | 163.79 | –
126.42 K | – | 167.37
126.68 K | 164.71 | –
127.23 K | – | 168.2
127.48 K | 165.54 | –
128.03 K | – | 169.2
128.28 K | 166.54 | –
128.83 K | – | 170.03
129.09 K | 167.45 | –
129.63 K | – | 170.95
129.89 K | 168.2 | –
130 K | 168.2 | –
130.43 K | – | 171.94
130.69 K | 169.03 | –
131.24 K | – | 172.53
131.49 K | 170.03 | –
132.04 K | – | 173.27
132.3 K | 170.86 | –
132.84 K | – | 174.35
133.1 K | 171.69 | –
133.64 K | – | 175.19
133.9 K | 172.77 | –
134.44 K | – | 176.02
134.71 K | 173.61 | –
135.25 K | – | 176.93
135.51 K | 174.44 | –
136.05 K | – | 177.85
136.31 K | 175.1 | –
136.85 K | – | 178.76
137.11 K | 176.02 | –
137.65 K | – | 179.76
137.92 K | 176.85 | –
138.45 K | – | 180.67
138.72 K | 177.93 | –
139.25 K | – | 181.5
139.52 K | 178.68 | –
140 K | 179.01 | –
140.06 K | – | 182.42
140.32 K | 179.43 | –
140.86 K | – | 183.25
141.12 K | 180.26 | –
141.66 K | – | 184
141.93 K | 181.34 | –
142.46 K | – | 184.83
142.72 K | 181.92 | –
143.25 K | – | 185.83
143.53 K | 182.83 | –
144.06 K | – | 186.66
144.33 K | 183.83 | –
144.86 K | – | 187.57
145.13 K | 184.75 | –
145.66 K | – | 188.41
145.93 K | 185.66 | –
146.46 K | – | 189.32
146.73 K | 186.49 | –
147.26 K | – | 190.15
